Data set [1] concerns primary mouse astrocytes. The data set can be described thus: Extracellular medium acidification (SNARF5), Example 2. The note with it: Astrocyte, 3 nM to 30 μM, 1.5 h and 3 h. Type of data set: cell-based. The procedure: (§1) Primary cultures of cerebrocortical astrocytes were obtained from 1 to 2-day-old OF1 mouse pups (Charles River). Briefly, cortices were isolated and minced in small pieces under a dissecting microscope. The cells were incubated for 30 min at 37° C. in a solution containing 20 U/ml papain, 1 mM L-cysteine and 10 kU/ml DNase I. After dissociation, papain activity was stopped by the addition of fetal calf serum (FCS). Single-cell suspension was then obtained by mechanical dissociation, which consisted in cells trituration in a DMEM D7777 medium supplemented with 44 mm NaHCO3, 10 ml/L antibiotic/antimycotic solution and 10% FCS. […]
Secretion of lactate was measured indirectly through the acidification of extracellular medium using extracellular pH sensor SNARE-5F-(AND-6)-CAR (SNARF5). […] After 90 min stimulation, fluorescence was read at exc. […] The ratio of fluorescence between 630 nm and 580 emission values, which is proportional to extracellular pH, was calculated. […]
The extracellular medium acidification in primary mouse astrocytes treated with GP-A1 was quantified (FIG. 13). Extracellular medium acidification was measured over a period of 1.5 h and 3 h.

Data set [2] relates to primary mouse astrocytes. As to the kind of experiment: Extracellular lactate quantification, Example 2. Type of data set: cell-based. The note with it: Astrocyte, 3 nM to 30 μM, 1.5 h, read-out: EC50 release of lactate. As to the method:
as §1
Secretion of L-lactate was measured in the extracellular medium of 96-well plated astrocytes after 90 min stimulation (at 37° C., in 5% CO2/95% air conditions) with Vehicle (DMSO), the compounds of the invention (100 nM to 100 μM) or positive control. […] To quantify lactate concentrations in the extracellular medium, 200 μl of a 0.2M Glycine-semicarbazide buffer (pH 10) containing 3 mM NAD and 14 U/ml LDH was added to each well of a 96-well plate containing 30 μl aliquots of extracellular medium. […] Fluorescence intensity (340 nm excitation/450 nm emission), which represents the amount of NADH produced, was measured, and lactate concentration values were determined relative to a standard curve of L-lactate concentrations. […]

The nature of data set [3]: In vivo pharmacokinetics (PFC microdialysis and plasma). The note with it: after gavage with 100 mg/kg; sustained over several hours. More on the design: species or system mouse. As to the method: Mice were anesthetized using isoflurane (2% and 800 mL/min 02). Before surgery, Finadyne (1 mg/kg, s.c.) was administered for analgesia during surgery and the post-surgical recovery period. A mixture of bupivacaine and epinephrine was used for local anesthesia of the incision site of the periost of the skull.
The animals were placed in a stereotaxic frame (Kopf instruments, USA). MetaQuant microdialysis probes with a 3 mm exposed polyacrylonitrile membrane (MQ-PAN 3/3, Brainlink, the Netherlands) were implanted into the prefrontal cortex (coordinates for the tip of the probe: AP=+2.0 mm (to bregma), lateral=−0.7 mm (to midline), ventral=−3.3 mm (to dura), with the incisor bar set at 0.0 mm and an angle of 8°). All coordinates were based on “The mouse brain in stereotaxic coordinates” by Paxinos and Franklin (2004). The probes were attached to the skull with a stainless steel screw and dental cement (Fuji Plus Capsules, Henry Schein, the Netherlands).
In the same surgical procedure, a catheter was placed into the jugular vein to accommodate blood sampling. An indwelling cannula was inserted into the right jugular vein, and exteriorized through an incision on top of the skull. […]
PK was measured for GP-04, GP-05, GP-07, GP-R1 and GP-P1 in the PFC (prefrontal cortex) and plasma of wild type C56Bl/6 mice by CRO Brainsonline.

The structures appear in SMILES notation.

On to `Cc1ccccc1NC(=O)C1CCCN(c2ncnc3oc(C)c(C)c23)C1` (stereo not shown) [F228-0422], for which the results for the EC50 in data set [1] and in data set [2] were 370 to 480 nM and 590 nM, respectively.

As to `CC(=O)N1CCc2sc(S(=O)(=O)N3CCN(c4ccccc4C)CC3)cc2C1` [P025-0159], the “Levels in the PFC” value in data set [3] is recorded as “need chemical improvement to reach their target at therapeutic dose in the brain”. As for `COc1cc(C)c(Cl)cc1S(=O)(=O)NCc1ccncc1` [T5580243], the “Levels in the PFC” value in data set [3] is given as “at therapeutic range (100 nM to 1 uM)”.

The EC50 is the midpoint of the concentration-response curve.
